Tests used:
[1] = target: Phosphatidylinositol 4,5-bisphosphate 3-kinase catalytic subunit alpha isoform (Homo sapiens, UniProt P42336); assay: Inhibition Assay; conditions: 25 °C
Method: (§1) The final concentrations of ATP and phosphatidyl inositol in the assay are 5 μM and 6 μg/mL, respectively. […] The final concentrations of ATP and phosphatidyl inositol (PI) in the assay are 1 μM and 10 μg/mL, respectively.

[2] = target: T1, Phosphatidylinositol 4,5-bisphosphate 3-kinase catalytic subunit delta isoform (Homo sapiens, UniProt O00329); assay: Inhibition Assay; conditions: 25 °C
T1 sequence (O00329 whole entry): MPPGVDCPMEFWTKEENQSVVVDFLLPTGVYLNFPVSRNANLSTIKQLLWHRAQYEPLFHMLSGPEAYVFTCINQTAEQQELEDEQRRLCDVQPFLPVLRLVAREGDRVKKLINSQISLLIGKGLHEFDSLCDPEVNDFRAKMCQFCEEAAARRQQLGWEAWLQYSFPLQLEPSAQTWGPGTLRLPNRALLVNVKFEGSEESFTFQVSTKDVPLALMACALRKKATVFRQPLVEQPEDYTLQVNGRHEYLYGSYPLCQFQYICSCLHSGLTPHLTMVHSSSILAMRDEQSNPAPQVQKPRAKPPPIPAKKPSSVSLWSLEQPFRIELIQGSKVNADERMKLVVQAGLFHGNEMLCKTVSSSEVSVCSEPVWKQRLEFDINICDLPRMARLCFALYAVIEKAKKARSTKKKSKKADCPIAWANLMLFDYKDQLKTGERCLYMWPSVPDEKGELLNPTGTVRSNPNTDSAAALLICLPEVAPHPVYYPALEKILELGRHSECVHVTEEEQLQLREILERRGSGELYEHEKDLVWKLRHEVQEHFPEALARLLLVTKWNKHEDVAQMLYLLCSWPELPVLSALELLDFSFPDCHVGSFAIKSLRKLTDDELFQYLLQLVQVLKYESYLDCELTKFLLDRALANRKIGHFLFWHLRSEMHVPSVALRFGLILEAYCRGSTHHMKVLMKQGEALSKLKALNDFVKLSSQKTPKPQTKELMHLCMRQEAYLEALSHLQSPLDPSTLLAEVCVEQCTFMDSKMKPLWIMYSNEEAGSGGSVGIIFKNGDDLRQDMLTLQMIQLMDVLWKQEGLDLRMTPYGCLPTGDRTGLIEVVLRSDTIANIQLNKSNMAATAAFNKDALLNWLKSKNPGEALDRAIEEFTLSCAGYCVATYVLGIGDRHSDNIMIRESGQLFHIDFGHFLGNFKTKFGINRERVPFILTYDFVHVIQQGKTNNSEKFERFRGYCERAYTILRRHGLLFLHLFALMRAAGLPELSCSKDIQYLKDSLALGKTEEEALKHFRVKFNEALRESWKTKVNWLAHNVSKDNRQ
Method: as §1

Phosphatidylinositol 4,5-bisphosphate 3-kinase catalytic subunit alpha isoform, sequence (P42336 whole entry, canonical isoform): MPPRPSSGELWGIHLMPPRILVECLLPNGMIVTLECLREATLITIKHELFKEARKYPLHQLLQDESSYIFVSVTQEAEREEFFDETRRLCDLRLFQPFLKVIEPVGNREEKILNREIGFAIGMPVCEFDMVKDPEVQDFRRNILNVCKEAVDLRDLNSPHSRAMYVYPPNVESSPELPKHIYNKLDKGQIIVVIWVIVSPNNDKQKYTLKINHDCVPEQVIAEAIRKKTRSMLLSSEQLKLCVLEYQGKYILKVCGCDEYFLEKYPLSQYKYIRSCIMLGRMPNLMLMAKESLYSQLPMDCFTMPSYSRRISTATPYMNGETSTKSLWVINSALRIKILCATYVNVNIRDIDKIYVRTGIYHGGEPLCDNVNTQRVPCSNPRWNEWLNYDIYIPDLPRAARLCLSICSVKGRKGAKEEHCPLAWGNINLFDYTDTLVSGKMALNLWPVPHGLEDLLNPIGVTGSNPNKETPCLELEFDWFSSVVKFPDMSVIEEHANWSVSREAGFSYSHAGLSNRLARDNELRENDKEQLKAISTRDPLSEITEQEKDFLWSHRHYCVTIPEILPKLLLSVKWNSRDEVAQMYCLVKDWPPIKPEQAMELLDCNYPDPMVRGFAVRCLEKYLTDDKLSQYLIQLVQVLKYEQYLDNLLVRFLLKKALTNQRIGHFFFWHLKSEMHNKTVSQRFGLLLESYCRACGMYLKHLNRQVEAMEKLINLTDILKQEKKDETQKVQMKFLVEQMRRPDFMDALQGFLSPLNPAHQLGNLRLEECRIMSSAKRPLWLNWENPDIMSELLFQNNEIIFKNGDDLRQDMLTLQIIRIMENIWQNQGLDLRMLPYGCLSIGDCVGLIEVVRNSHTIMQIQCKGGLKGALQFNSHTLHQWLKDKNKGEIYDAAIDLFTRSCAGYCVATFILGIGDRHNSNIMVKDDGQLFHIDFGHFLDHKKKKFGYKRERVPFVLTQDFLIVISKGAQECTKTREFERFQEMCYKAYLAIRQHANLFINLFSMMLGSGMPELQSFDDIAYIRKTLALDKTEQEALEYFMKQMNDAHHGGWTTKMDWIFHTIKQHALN

IC50 [1]: 468 nM
IC50 [2]: 23 nM
Compound: COc1ncc(N2CCOc3ccc(O[C@H]4CCN(C(=O)C5COCCO5)C4)cc32)cc1F (some centres not stated) [US9539260, B115]
